In paper PMC10601436 (ACS Omega, 2023) one finds IC50 data, which are given here for 56 compounds.

Peptide text beside a SMILES is read from it.

Usually IC50 stands for the concentration at which inhibition is half-maximal.

This assay has as its target hDPP-IV (Homo sapiens, UniProt P27487). Description: DPP-IV inhibitory assay. It is filed as biochemical.

Sequence of hDPP-IV (P27487 whole entry): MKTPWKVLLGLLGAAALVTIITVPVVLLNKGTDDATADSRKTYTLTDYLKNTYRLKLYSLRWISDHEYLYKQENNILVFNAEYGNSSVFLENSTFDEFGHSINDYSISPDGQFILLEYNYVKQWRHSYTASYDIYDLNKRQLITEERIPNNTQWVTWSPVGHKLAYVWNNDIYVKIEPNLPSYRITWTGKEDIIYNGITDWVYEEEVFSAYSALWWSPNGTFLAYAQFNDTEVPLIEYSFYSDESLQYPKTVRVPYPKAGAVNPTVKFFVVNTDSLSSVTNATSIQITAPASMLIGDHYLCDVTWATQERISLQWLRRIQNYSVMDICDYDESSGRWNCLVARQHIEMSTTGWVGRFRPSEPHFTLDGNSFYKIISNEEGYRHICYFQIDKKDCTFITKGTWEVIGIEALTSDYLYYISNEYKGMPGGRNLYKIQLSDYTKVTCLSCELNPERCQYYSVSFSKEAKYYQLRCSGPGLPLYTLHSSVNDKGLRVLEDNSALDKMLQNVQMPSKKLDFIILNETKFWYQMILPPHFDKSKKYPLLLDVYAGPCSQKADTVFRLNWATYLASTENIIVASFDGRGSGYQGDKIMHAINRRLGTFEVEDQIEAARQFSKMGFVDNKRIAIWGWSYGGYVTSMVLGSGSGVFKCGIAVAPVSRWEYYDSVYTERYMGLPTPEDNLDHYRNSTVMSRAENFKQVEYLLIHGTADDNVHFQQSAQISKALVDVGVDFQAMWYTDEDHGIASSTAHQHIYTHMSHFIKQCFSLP

For the compound `CC[C@H](C)[C@H](N)C(=O)N1CCC[C@H]1C(=O)N[C@H](C(=O)N1CCC[C@H]1C(=O)N[C@H](C(=O)O)[C@@H](C)CC)[C@@H](C)CC` [IPIPI] (H-IPIPI-OH), the IC50 worked out at 47.5 µM. In other words, the double-digit micromolar range. Then `CC(C)[C@H](N)C(=O)N1CCC[C@H]1C(=O)N[C@H](C(=O)N1CCC[C@H]1C(=O)N[C@@H](CS)C(=O)O)C(C)C` [VPVPC] (H-VPVPC-OH), with 54.8 µM. Then `CC(C)[C@H](N)C(=O)N1CCC[C@H]1C(=O)N[C@H](C(=O)N1CCC[C@H]1C(=O)N[C@@H](Cc1c[nH]cn1)C(=O)O)C(C)C` [VPVPH] (H-VPVPH-OH), with 51.1 µM; and `C[C@H](NC(=O)[C@H](C)NC(=O)[C@@H](N)Cc1c[nH]c2ccccc12)C(=O)O` [WAA] (H-Trp-Ala-Ala-OH), with 275 µM. In the case of `C[C@H](NC(=O)[C@@H](N)Cc1c[nH]c2ccccc12)C(=O)N[C@@H](CS)C(=O)O` [WAC] (H-Trp-Ala-Cys-OH) it was 283 µM; in that of `C[C@H](NC(=O)[C@@H](N)Cc1c[nH]c2ccccc12)C(=O)N[C@@H](CC(=O)O)C(=O)O` [WAD] (H-Trp-Ala-Asp-OH), 433 µM. `C[C@H](NC(=O)[C@@H](N)Cc1c[nH]c2ccccc12)C(=O)N[C@@H](CCC(=O)O)C(=O)O` [WAE] (H-Trp-Ala-Glu-OH): inhibition was half-maximal at 462 µM (IC50).

`C[C@H](NC(=O)[C@@H](N)Cc1c[nH]c2ccccc12)C(=O)N[C@@H](Cc1ccccc1)C(=O)O` [WAF] (H-Trp-Ala-Phe-OH) returned a half-maximal inhibitory concentration (IC50) of 153 µM. In the case of `C[C@H](NC(=O)[C@@H](N)Cc1c[nH]c2ccccc12)C(=O)NCC(=O)O` [WAG] (H-Trp-Ala-Gly-OH) it was 352 µM.

`C[C@H](NC(=O)[C@@H](N)Cc1c[nH]c2ccccc12)C(=O)N[C@@H](Cc1c[nH]cn1)C(=O)O` [WAH] (H-Trp-Ala-His-OH) had a 50% inhibitory concentration (IC50) of 190 µM. In the case of `CC[C@H](C)[C@H](NC(=O)[C@H](C)NC(=O)[C@@H](N)Cc1c[nH]c2ccccc12)C(=O)O` [WAI] (H-Trp-Ala-Ile-OH) it was 199 µM; in that of `CC(C)C[C@H](NC(=O)[C@H](C)NC(=O)[C@@H](N)Cc1c[nH]c2ccccc12)C(=O)O` [WAL] (H-Trp-Ala-Leu-OH), 260 µM; in that of `CSCC[C@H](NC(=O)[C@H](C)NC(=O)[C@@H](N)Cc1c[nH]c2ccccc12)C(=O)O` [WAM] (H-Trp-Ala-Met-OH), 330 µM. In the case of `C[C@H](NC(=O)[C@@H](N)Cc1c[nH]c2ccccc12)C(=O)N[C@@H](CC(N)=O)C(=O)O` [WAN] (H-Trp-Ala-Asn-OH) it was 302 µM; in that of `C[C@H](NC(=O)[C@@H](N)Cc1c[nH]c2ccccc12)C(=O)N1CCC[C@H]1C(=O)O` [WAP] (H-Trp-Ala-Pro-OH), 441 µM; in that of `C[C@H](NC(=O)[C@@H](N)Cc1c[nH]c2ccccc12)C(=O)N[C@@H](CCC(N)=O)C(=O)O` [WAQ] (H-Trp-Ala-Gln-OH), 289 µM. Then `C[C@H](NC(=O)[C@@H](N)Cc1c[nH]c2ccccc12)C(=O)N[C@@H](CCCNC(=N)N)C(=O)O` [WAR] (H-Trp-Ala-Arg-OH), with 665 µM; and `C[C@H](NC(=O)[C@@H](N)Cc1c[nH]c2ccccc12)C(=O)N[C@H](C(=O)O)[C@@H](C)O` [WAT] (H-Trp-Ala-Thr-OH), with 296 µM; and `CC(C)[C@H](NC(=O)[C@H](C)NC(=O)[C@@H](N)Cc1c[nH]c2ccccc12)C(=O)O` [WAV] (H-Trp-Ala-Val-OH), with 250 µM.

Consider `C[C@H](NC(=O)[C@@H](N)Cc1c[nH]c2ccccc12)C(=O)N[C@@H](Cc1c[nH]c2ccccc12)C(=O)O` [WAW] (H-Trp-Ala-Trp-OH), for which the half-inhibitory concentration (IC50) is 104 µM. Turning to `C[C@H](NC(=O)[C@@H](N)Cc1c[nH]c2ccccc12)C(=O)N[C@@H](Cc1ccc(O)cc1)C(=O)O` [WAY] (H-Trp-Ala-Tyr-OH), it took 117 µM to reach half-maximal inhibition (IC50).

`C[C@H](NC(=O)[C@@H]1CCCN1C(=O)[C@@H](N)Cc1c[nH]c2ccccc12)C(=O)O` [WPA] (H-Trp-Pro-Ala-OH) gave an IC50 of 206 µM.

`N[C@@H](Cc1c[nH]c2ccccc12)C(=O)N1CCC[C@H]1C(=O)N[C@@H](CS)C(=O)O` [WPC] (H-Trp-Pro-Cys-OH) displayed an IC50 of 739 µM. In the case of `N[C@@H](Cc1c[nH]c2ccccc12)C(=O)N1CCC[C@H]1C(=O)N[C@@H](CC(=O)O)C(=O)O` [WPD] (H-Trp-Pro-Asp-OH) it was 481 µM; in that of `N[C@@H](Cc1c[nH]c2ccccc12)C(=O)N1CCC[C@H]1C(=O)N[C@@H](CCC(=O)O)C(=O)O` [WPE] (H-Trp-Pro-Glu-OH), 353 µM; in that of `N[C@@H](Cc1c[nH]c2ccccc12)C(=O)N1CCC[C@H]1C(=O)N[C@@H](Cc1ccccc1)C(=O)O` [WPF] (H-Trp-Pro-Phe-OH), 286 µM. In the case of `N[C@@H](Cc1c[nH]c2ccccc12)C(=O)N1CCC[C@H]1C(=O)NCC(=O)O` [WPG] (H-Trp-Pro-Gly-OH) it was 135 µM. In the case of `N[C@@H](Cc1c[nH]c2ccccc12)C(=O)N1CCC[C@H]1C(=O)N[C@@H](Cc1c[nH]cn1)C(=O)O` [WPH] (H-Trp-Pro-His-OH) it was 315 µM; in that of `CC(C)C[C@H](NC(=O)[C@@H]1CCCN1C(=O)[C@@H](N)Cc1c[nH]c2ccccc12)C(=O)O` [WPL] (H-Trp-Pro-Leu-OH), 461 µM; in that of `CSCC[C@H](NC(=O)[C@@H]1CCCN1C(=O)[C@@H](N)Cc1c[nH]c2ccccc12)C(=O)O` [WPM] (H-Trp-Pro-Met-OH), 219 µM. In the case of `NC(=O)C[C@H](NC(=O)[C@@H]1CCCN1C(=O)[C@@H](N)Cc1c[nH]c2ccccc12)C(=O)O` [WPN] (H-Trp-Pro-Asn-OH), the 50% inhibitory concentration (IC50) is 129 µM. Against the preceding compound, the IC50 is about 1.7-fold lower. In the case of `N[C@@H](Cc1c[nH]c2ccccc12)C(=O)N1CCC[C@H]1C(=O)N1CCC[C@H]1C(=O)O` [WPP] (H-Trp-Pro-Pro-OH) it was 303 µM; in that of `NC(=O)CC[C@H](NC(=O)[C@@H]1CCCN1C(=O)[C@@H](N)Cc1c[nH]c2ccccc12)C(=O)O` [WPQ] (H-Trp-Pro-Gln-OH), 196 µM; in that of `N=C(N)NCCC[C@H](NC(=O)[C@@H]1CCCN1C(=O)[C@@H](N)Cc1c[nH]c2ccccc12)C(=O)O` [WPR] (H-Trp-Pro-Arg-OH), 209 µM. In the case of `N[C@@H](Cc1c[nH]c2ccccc12)C(=O)N1CCC[C@H]1C(=O)N[C@@H](CO)C(=O)O` [WPS] (H-Trp-Pro-Ser-OH) it was 588 µM. In the case of `C[C@@H](O)[C@H](NC(=O)[C@@H]1CCCN1C(=O)[C@@H](N)Cc1c[nH]c2ccccc12)C(=O)O` [WPT] (H-Trp-Pro-Thr-OH) it was 435 µM. As for `CC(C)[C@H](NC(=O)[C@@H]1CCCN1C(=O)[C@@H](N)Cc1c[nH]c2ccccc12)C(=O)O` [WPV] (H-Trp-Pro-Val-OH), 511 µM corresponded to half-maximal inhibition (IC50). In the case of `N[C@@H](Cc1c[nH]c2ccccc12)C(=O)N1CCC[C@H]1C(=O)N[C@@H](Cc1c[nH]c2ccccc12)C(=O)O` [WPW] (H-Trp-Pro-Trp-OH) it was 183 µM; in that of `N[C@@H](Cc1c[nH]c2ccccc12)C(=O)N1CCC[C@H]1C(=O)N[C@@H](Cc1ccc(O)cc1)C(=O)O` [WPY] (H-Trp-Pro-Tyr-OH), 304 µM; in that of `C[C@H](NC(=O)[C@H](CCCNC(=N)N)NC(=O)[C@@H](N)Cc1c[nH]c2ccccc12)C(=O)O` [WRA] (H-Trp-Arg-Ala-OH), 535 µM. In the case of `N=C(N)NCCC[C@H](NC(=O)[C@@H](N)Cc1c[nH]c2ccccc12)C(=O)N[C@@H](CS)C(=O)O` [WRC] (H-Trp-Arg-Cys-OH) it was 210 µM; in that of `N=C(N)NCCC[C@H](NC(=O)[C@@H](N)Cc1c[nH]c2ccccc12)C(=O)N[C@@H](CC(=O)O)C(=O)O` [WRD] (H-Trp-Arg-Asp-OH), 204 µM. `N=C(N)NCCC[C@H](NC(=O)[C@@H](N)Cc1c[nH]c2ccccc12)C(=O)N[C@@H](CCC(=O)O)C(=O)O` [WRE] (H-Trp-Arg-Glu-OH) yielded an IC50 of 160 µM. Compound `N=C(N)NCCC[C@H](NC(=O)[C@@H](N)Cc1c[nH]c2ccccc12)C(=O)N[C@@H](Cc1ccccc1)C(=O)O` [WRF] (H-Trp-Arg-Phe-OH) registered an IC50 of 257 µM. Then `N=C(N)NCCC[C@H](NC(=O)[C@@H](N)Cc1c[nH]c2ccccc12)C(=O)NCC(=O)O` [WRG] (H-Trp-Arg-Gly-OH), with 270 µM; and `N=C(N)NCCC[C@H](NC(=O)[C@@H](N)Cc1c[nH]c2ccccc12)C(=O)N[C@@H](Cc1c[nH]cn1)C(=O)O` [WRH] (H-Trp-Arg-His-OH), with 277 µM; and `CC[C@H](C)[C@H](NC(=O)[C@H](CCCNC(=N)N)NC(=O)[C@@H](N)Cc1c[nH]c2ccccc12)C(=O)O` [WRI] (H-Trp-Arg-Ile-OH), with 330 µM. Then `CC(C)C[C@H](NC(=O)[C@H](CCCNC(=N)N)NC(=O)[C@@H](N)Cc1c[nH]c2ccccc12)C(=O)O` [WRL] (H-Trp-Arg-Leu-OH), with 151 µM.

On to `CSCC[C@H](NC(=O)[C@H](CCCNC(=N)N)NC(=O)[C@@H](N)Cc1c[nH]c2ccccc12)C(=O)O` [WRM] (H-Trp-Arg-Met-OH), for which half-maximal inhibition (IC50) was put at 897 µM. Then `N=C(N)NCCC[C@H](NC(=O)[C@@H](N)Cc1c[nH]c2ccccc12)C(=O)N[C@@H](CC(N)=O)C(=O)O` [WRN] (H-Trp-Arg-Asn-OH), with 313 µM. Then `N=C(N)NCCC[C@H](NC(=O)[C@@H](N)Cc1c[nH]c2ccccc12)C(=O)N1CCC[C@H]1C(=O)O` [WRP] (H-Trp-Arg-Pro-OH), with 742 µM; and `N=C(N)NCCC[C@H](NC(=O)[C@@H](N)Cc1c[nH]c2ccccc12)C(=O)N[C@@H](CCC(N)=O)C(=O)O` [WRQ] (H-Trp-Arg-Gln-OH), with 286 µM. Regarding `N=C(N)NCCC[C@H](NC(=O)[C@@H](N)Cc1c[nH]c2ccccc12)C(=O)N[C@@H](CO)C(=O)O` [WRS] (H-Trp-Arg-Ser-OH), the concentration for half-maximal inhibition (IC50) was found to be 265 µM. This IC50 and that of the compound before are within 1.5-fold of each other. `C[C@@H](O)[C@H](NC(=O)[C@H](CCCNC(=N)N)NC(=O)[C@@H](N)Cc1c[nH]c2ccccc12)C(=O)O` [WRT] (H-Trp-Arg-Thr-OH) registered an IC50 of 556 µM. Then `CC(C)[C@H](NC(=O)[C@H](CCCNC(=N)N)NC(=O)[C@@H](N)Cc1c[nH]c2ccccc12)C(=O)O` [WRV] (H-Trp-Arg-Val-OH), with 541 µM; and `N=C(N)NCCC[C@H](NC(=O)[C@@H](N)Cc1c[nH]c2ccccc12)C(=O)N[C@@H](Cc1c[nH]c2ccccc12)C(=O)O` [WRW] (H-Trp-Arg-Trp-OH), with 603 µM.
